Assay results as given in PubChem BioAssay (NCI).
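The compound was tested at five concentrations on cells cultured in 96-well plates, with a 48-hour exposure period. GI50: concentration for 50% inhibition of growth. TGI: total growth inhibition.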

What was measured:
Experiment in all cases: inhibition of tumour cell growth, NCI panel, 48 h
RPMI-8226 leukemia = test system: RPMI-8226 leukemia
HOP-92 NSCLC = test system: HOP-92 NSCLC
BT-549 breast = test system: BT-549 breast
SNB-19 CNS = test system: SNB-19 CNS
HL-60(TB) leukemia = test system: HL-60(TB) leukemia
MOLT-4 leukemia = test system: MOLT-4 leukemia
NCI-H460 lung = test system: NCI-H460 lung
MCF7 breast = test system: MCF7 breast
SK-MEL-5 melanoma = test system: SK-MEL-5 melanoma
UACC-62 melanoma = test system: UACC-62 melanoma
HS 578T breast = test system: HS 578T breast

SMILES	GI50 (RPMI-8226 leukemia) [µM]	TGI (RPMI-8226 leukemia) [µM]	GI50 (HOP-92 NSCLC) [µM]	TGI (BT-549 breast) [µM]	TGI (SNB-19 CNS) [µM]	TGI (HL-60(TB) leukemia) [µM]	TGI (HOP-92 NSCLC) [µM]	TGI (MOLT-4 leukemia) [µM]	TGI (NCI-H460 lung) [µM]	TGI (MCF7 breast) [µM]	TGI (SK-MEL-5 melanoma) [µM]	TGI (UACC-62 melanoma) [µM]	TGI (HS 578T breast) [µM]
Cc1c(CNc2ccc(C(=O)NC(CCCNC(=O)c3ccccc3C(=O)O)C(=O)O)cc2)cnc2nc(N)nc(N)c12 (stereo not given)	0.0216	> 100	> 100	6.62	> 100	> 100							
O=C(COc1ccc(OCC(=O)N2C(=O)CC(=O)N(c3ccc(Cl)cc3)C2=S)cc1)N1C(=O)CC(=O)N(c2ccc(Cl)cc2)C1=S		> 100		87.8	> 100		70.4	> 100	> 100	> 100	> 100	60.5	
O=c1[nH]nc(-c2ccccc2)n1/N=C/c1ccc([N+](=O)[O-])o1		12.8			> 47.2	> 44.4	> 24.1	> 47.1	> 22.6	7.21	28.9	11.2	> 100
C#CC[C@@]12CC(=O)C[C@@H]1CCC1(C2)OCCO1 (tested in a mixture with another compound)		> 100			> 100	> 100	> 100	> 100	> 100	> 100	> 100	> 100	
C(/C=N/NC1=NCCCCN1)=N\NC1=NCCCCN1				> 100	> 100		> 100	> 100	> 100	> 100	> 100	> 100	> 100
ClC(Cl)(Cl)C1CCOC1n1nnc2ccccc21 (stereo not given)				86		58.2		73.8		> 100	> 100	> 100	> 100
COC(=O)[C@H](Cc1c[nH]c2ccccc12)NP(=O)(OCCC#N)OCC1OC(n2cc(C)c(=O)[nH]c2=O)CC1N=[N+]=[N-] (stereo not given in full)		> 100		> 100	> 100	> 100	> 100	> 100	> 100	> 100	> 100	> 100	
O=[N+]([O-])c1ccc(NN=C2CN3CCN(C2)c2ccccc23)c([N+](=O)[O-])c1				> 100	> 100		> 100	> 100	> 100	> 100	> 100	> 100	> 100
Cc1cccc2c(N)c3cccc(C(=O)NCC[N+](C)(C)Cc4ccc([N+](=O)[O-])s4)c3nc12		34.1		> 70.5	60.2		68.8	9.36	16.5	> 51.9	28.2	> 49.1	34.6
Cc1cc2[nH]c3c(C#N)c(-c4ccccc4)c(N=Nc4ccc(F)cc4)c(=O)n3c2cc1C		> 100		> 100	> 100				> 100	> 100	> 100		
COC(=O)C1=C(OC(=O)/C(=C/c2ccccc2)c2ccc(OC)cc2)C(C(=O)OC)[C@@]2(O)[C@@H](C(=O)OC)[C@H](C)C[C@@H]1[C@@H]2C(=O)OC (stereo not given in full)		> 100		> 100	> 100	> 100		> 100	> 100	> 100	> 100	> 100	99.3
